In US6982277B2, “P53 inhibitors and therapeutic use of the same” (The Board of Trutees of the University of Illinois, priority 1999, dated 2006):
“Also recorded” adds a separate entry of the source.

Columns and labels:
[1] = system: p53; assay: suppression of p53-dependent transcriptional activation (lacZ, X-gal staining) in ConA cells treated with doxorubicin; type: cell-based, mouse; conditions: 0.2 μg/ml doxorubicin, 24 hours; test compounds about 10 to about 20 μM
[2] = system: p53; assay: tests and experiments of FIGS. 1–15 repeated using PFT-β
Source text: The results of these tests are illustrated in attached FIGS. 1–16. These figures, in general, are based on tests performed on compounds of structural formulae (V) and (VI). In the following Figures, test results illustrated for compound (V), i.e., PFT-α, were repeated for compound (VI), i.e., PFT-β.
(§1) As previously stated, the tests and experiments set forth in FIGS. 1–15 using PFT-α were repeated using PFT-β.

[3] = toxicity comparison (FIG. 16); conditions: compared with PFT-α
Protocol: Then, a p53 inhibitor was applied in a concentration of 1 μM to 20 μM to the test cells in the presence of the p53 activator. Cytotoxicity of the p53 inhibitors also was determined by standard assays. An estimation of antiapoptotic activity of the p53 inhibitor compounds was based on an ability to suppress apoptotic cell death in standard cell systems sensitive to p53-dependent apoptosis (i.e., mouse embryonic fibroblasts transformed with Ela+ras, line C8, described by S. W. Lowe et al., Cell, 74, pp. 957–968 (1993)). p53 dependence of the compound activity was analyzed by testing its effect on p53-deficient cells (i.e., radiosensitivity or drug sensitivity of p53−/− mouse embryonic fibroblasts transformed with Ela+ras, line A4, described by Lowe et al., 1993).
as §1

[4] = system: p53-deficient tumor xenografts; assay: therapy response of p53-deficient tumors in mice; type: in vivo, mouse; conditions: mouse, in vivo
Source text: The above-described tests using PFT-α and PFT-β illustrate the therapeutic use of temporary p53 inhibitors to reduce the side effects of radiation therapy or chemotherapy for human cancers that have lost functional p53.

[5] = system: p53; assay: survival of mice after whole-body gamma irradiation; type: in vivo, mouse; conditions: 2.2 mg/kg i.p. five minutes prior to irradiation
Protocol: In particular, FIG. 7 illustrates that pifithrin-alpha protects mice from radiation-induced death. In this test, two different strains of mice (C57BL and Balb(c)) were treated with lethal and sublethal doses of whole-body gamma radiation. A comparison was made between (i) untreated unirradiated mice, (ii) unirradiated mice that received a single intraperitoneal (i.p.) injection of PFT-α, (iii) untreated gamma-irradiated mice, and (iv) mice injected intraperitoneally with PFT-α immediately before gamma irradiation.
In the plots of FIG. 7, whole-body gamma irradiated mice (60 total) were divided into four groups. Ten mice from each group were injected i.p. with pifithrin-alpha (2.2 mg/kg) five minutes prior to irradiation. […] The experiments were repeated at least three times with 10 mice per each experimental subgroup.

[6] = system: tumor; assay: tumor volume in C57BL mice treated with cyclophosphamide; type: in vivo, mouse; conditions: CTX at days 0, 1, and 2, sixteen days
Protocol: FIG. 15 is a plot of tumor volume vs. days for C57BL mice treated with cyclophosphamide (CTX), with and without administration of PFT-β. The mice were treated with CTX at days 0, 1, and 2, and tumor volume was monitored for sixteen days.

[7] = system: p53; assay: long-term survival and cancer development of mice after whole body radiation; type: in vivo; conditions: 30 survivors rescued from lethal gamma irradiation, seven months after irradiation
Protocol: Both wild-type (wt) mice and p53-deficient mice were irradiated. One group of the wild-type mice were treated with PFT-α. […] In contrast, fifteen untreated wild-type mice died within 100 days. The p53-deficient mice were unaffected for about 125 days, then all expired over the next 25–30 days.
Suppression of p53 typically results in the survival of cells that otherwise are eliminated by p53, which can increase the risk of new cancer development. For example, p53-deficient mice are extremely sensitive to radiation-induced tumorigenesis. […] Thus, temporary suppression of p53 activity is different from p53 deficiency in terms of cancer predisposition.

[8] = toxicity of chemotherapeutics with p53 inhibitor; conditions: mouse, in vivo
[9] = system: p53; assay: p53 protein in UV-irradiated ConA cells (immunoblotting, two-dimensional gel, nuclear and cytoplasmic fractions); type: cell-based, mouse
Protocol: PFT-α was added to the cells before UV treatment and total cell lysates were prepared 18 hours later.
FIG. 6(d) illustrates that PFT-α changes the nuclear and cytoplasmic distribution of p53. Nuclear and cytoplasmic fractions were isolated from UV-treated ConA cells 6 hours after UV irradiation. p53 and p21^waf1 proteins were detected by immunoblotting. […] In particular, results of a gel shift assay using cell lysates from either untreated or UV-irradiated ConA cells grown in medium containing PFT-α are shown. […] The decline in the amount of bound DNA is proportional to the overall decrease in p53 content in the presence of PFT-α.

[10] = system: p53; assay: 14C-thymidine incorporation in tissues of gamma-irradiated mice (autoradiograms); type: in vivo, mouse; conditions: 10 Gy; single i.p. injection 2.2 mg/kg five minutes before irradiation
Protocol: Four-week-old p53-deficient mice and p53 wild-type (wt) mice were whole body gamma irradiated (10 Gy). Pifithrin-alpha was injected in one of the p53 wild-type animals five minutes before irradiation. ^14C-thymidine (10 mCi per animal) was injected intraperitoneally into each mouse 8 hours after irradiation. The mice were sacrificed 24 hours after irradiation and whole body sectioned (25 μm thick) using cryostatic microtome were prepared and exposed to X-ray film to monitor the distribution of ^14C in the tissue. FIG. 8 presents autoradiograms of representative sections. Arrows indicate ^14C-thymidine incorporation in the skin and intestine.

Row | Compound | suppression of p53-dependent lacZ expression (X-gal) [1] | test results compared with PFT-α [2] | toxicity [3] | efficacy of chemo- or radiation therapy of p53 deficient mouse tumors [4] | survival at higher, lethal doses of irradiation [5] | tumor growth (tumor volume) [6] | tumors or pathological lesions in survivors / tumor incidence in irradiated animals [7] | toxicity of chemotherapeutics [8] | nuclear and cytoplasmic distribution of p53 ([9]; 6 hours after UV irradiation) | phosphorylation / post-translational modifications of p53 ([9]; after DNA-damaging treatments) | p53-mediated growth arrest in vivo (14C-thymidine incorporation) [10]
1 | N=c1sc2c(n1CC(=O)c1ccc(I)cc1)CCCC2 [86B10, 2-[2-imino-4,5,6,7-tetrahydro-1,3-benzothiazol-3(2H)-yl]-1-(4-iodophenyl)-1-ethanone] | similar, but weaker, p53-inhibition, effect than PFT-α | – | – | – | – | – | – | – | – | – | –
2 | Cc1ccc(-c2cn3c4c(sc3n2)CCCC4)cc1 [PFT-β, 2-(4-methylphenyl)-5,6,7,8-tetrahydrobenzo[d]imidazo[2,1-b]thiazole] | – | essentially identical to test results using PFT-α; also recorded: essentially identical to the results from the tests using PFT-α | substantially lower than the toxicity of PFT-α | do not reduce the efficacy of chemo- or radiation therapy of p53 deficient mouse tumors | rescue mice from lethal doses of gamma radiation using a single i.p. injection | substantial decrease in tumor growth | do not result in a high incidence of tumors in irradiated animals | reduce the toxicity of chemotherapeutics | reduce nuclear accumulation of p53 | do not effect either post-translational modifications of p53 or the DNA binding affinity of p53 | suppress p53-dependent radiation-induced growth arrest in rapidly proliferating mouse tissues
